Test results from patent US12102667B2, “Polypeptides and antibiotics against gram-negative bacterium comprising the same” (priority 2021, dated 2024).
Like-named read-outs stand apart in the source and are kept apart here.

B1: EC340: endolysin of E. coli bacteriophage PBEC131 (EC340-M-11-12), 162 amino acids (protein)
chain: VSRNISNNGIKFTAAFEGFRGTAYRATPNEKYLTIGYGHYGPDVTPGKTITPGQGLLLLNRDMAKAVAAVDAAAHHSLTQAQFDAVCDLVYNAGAGVIAATTGTGKALRSGDIATLRAKLALFINQNGKPLLGLRRRTAGRLALFDGKPWQEAEAIGRAVKG
modifications: synthetic_EC340
notes: endolysin of E. coli bacteriophage PBEC131 (EC340-M-11-12), 162 amino acids

Key:
E. coli [1] = conditions: cited from earlier work
K. pneumoniae [2] = conditions: K. pneumoniae CCARM 10143; cited from earlier work
[3] = system: Pseudomonas aeruginosa (ATCC 13388); experiment: Killing activity of endolysin, in vitro test; type: cell-based; conditions: 2 μM, 37° C., 2 hours, 20 mM Tris-Cl pH 7.5
Description: (§1) For this, endolysin EC340 at a concentration of 2 μM and each test bacterium were added to reaction buffer (20 mM Tris-Cl, pH 7.5) so that the final concentration was to be 200 μl, and were left at 37° C. for 2 hours. After 2 hours, the number of colonies of Acinetobacter baumannii, Pseudomonas aeruginosa and Escherichia coli was confirmed, and the result was shown in FIG. 3.

[4] = system: Acinetobacter baumannii (ATCC19606); experiment: Killing activity of endolysin, in vitro test; type: cell-based; conditions: 2 μM, 37° C., 2 hours, 20 mM Tris-Cl pH 7.5
Description: as §1

K. pneumoniae [5] = experiment: Antibacterial activity analysis (colony count after 2 hours in buffer); type: cell-based, Klebsiella pneumoniae; conditions: 2 μM
Description: (§2) The antibacterial activity of the purified protein was tested for E. coli and various K. pneumoniae strains. The bacterium were grown to an exponential phase (OD600=0.5) and harvested by centrifugation at 12,000×g for 3 minutes. Then, the pellets were washed with reaction buffer solution (20 mM Tris-HCl, pH 7.5) and diluted to about 10^6 cells/ml in the buffer solution. Then, 100 μl bacterial suspension was mixed with the purified endolysin of 100 μl in the reaction buffer solution and incubated at 37° C. for 2 hours. Finally, the mixture was diluted with PBS and loaded on an LB plate. After culturing at 37° C. overnight, the bacterial colonies were counted. All the analysis was performed in triplicate.
(§3) The same reaction was performed for the selected subject bacterium in 20 mM HEPES-NaOH, 150 mM NaCl [pH 7.4], and the unique antibacterial activity of Tris and dependence of endolysin for turgor pressure were excluded (FIG. 10a and FIG. 10b). […] The bacterial cells grown geometrically were cultured with 2 μM endolysin in low tonicity buffers (20 mM Tris-HCl, pH 7.5 or 20 mM HEPES, pH 7.5) or high tonicity buffers (buffer solution comprising 150 mM NaCl) at 37° C. for 2 hours. The cells treated with storage buffer solution (20 mM Tris-HCl, pH 7.5, 150 mM NaCl buffer solution (pH 7.5)) were used as a negative control group. The dotted line represents the detection limit (1 Log CFU/ml).

E. coli ATCC 8739 = experiment: Zymogram assay; type: biochemical, Escherichia coli; conditions: 3 μg purified endolysin, gel with autoclaved E. coli ATCC 8739
Description: Zymogram assay was performed with some modifications of the previously described method (Khakhum et al., 2016). In other words, an overnight culture of E. coli ATCC 8739 was harvested, washed with phosphate buffered solution (PBS) once, and then harvested by centrifugation at 4,000×g for 15 minutes. Then, the pellets were resuspended in 3 ml of deionized water. The cells were autoclaved and added to a 15% SDS-PAGE gel prior to polymerization. Then, 3 μg of purified endolysin (EC340, mtEC340 or LNT113) was mixed with 2× sample buffer (0.5 mM Tris-HCl, pH 6.8, 20% glycerol, 0.2% bromophenol blue) and loaded on SDS-PAGE. After electrophoresis, the gel was washed with deionized water for 1 hour and incubated in reaction buffer (1% Triton X-100, 20 mM Tris-HCl, pH 7.5) at a room temperature.

E. coli [6] = experiment: Checkerboard assay (MIC in combination, FIC index); type: cell-based, Escherichia coli; conditions: E. coli ATCC8738
Description: LNT113 was vertically diluted 2-fold and the antibiotic was serially diluted horizontally in a 96-well plate. Bacterium at a concentration of 10^6 CFU/ml were added to each well in a CAA medium. […] The fractional inhibitory concentration (FIC) for the LNT113 or antibiotic was calculated by dividing the MIC of two drugs by combining it with the MIC of each drug alone. […] The FICI was considered as a synergistic effect ≤0.5, an additive >0.5 ˜≤1, an independent effect (indifference)>1.0 ˜≤2, and an antagonistic effect (antagonism) >2.

E. coli [7] = experiment: Antibacterial activity analysis (colony count after 2 hours in buffer); type: cell-based, Escherichia coli; conditions: 2 μM
Description: as §2, §3, §1

| Molecule | MIC of antibiotics (E. coli [1]; E. coli CCARM 1A746) [µg/mL] | MIC of antibiotics (E. coli [1]; E. coli CCARM 1B684) [µg/mL] | MIC of antibiotics (K. pneumoniae [2]) [µg/mL] | other results |
| --- | --- | --- | --- | --- |
| CO/N=C(\C(=O)N[C@@H]1C(=O)N2C(C(=O)O)=C(COC(C)=O)CS[C@H]12)c1csc(N)n1 [Cefotaxime] | 128 | 0.25 | 16 | – |
| CC(=O)OCC1=C(C(=O)O)N2C(=O)[C@@H](NC(=O)Cc3cccs3)[C@H]2SC1 [Cephalothin] | ≥128 | 64 | ≥128 | – |
| O=C(O)c1cn(C2CC2)c2cc(N3CCNCC3)c(F)cc2c1=O [Ciprofloxacin] | 128 | 64 | ≤0.25 | – |
| Gentamicin | ≥128 | 128 | ≥128 | – |
| Trimethoprim-sulfamethoxazole | ≥128 | – | ≥32 | – |
| B1 | – | – | – | killing activity [3]: had the killing activity; killing activity [4]: had the killing activity; antibacterial activity (number of bacterium) (K. pneumoniae [5]; K. pneumoniae ATCC700603, KCTC2208, CCARM10143, F85, 2 hours, Tris-HCl pH 7.5): excellent antibacterial activity; effect of adding NaCl on antibacterial activity (K. pneumoniae [5]; K. pneumoniae KCTC 2208, Tris or Hepes buffer with 150 mM NaCl): almost inactivated; enzymatic activity in zymogram (E. coli ATCC 8739): enzymatic activity was observed; MIC of endolysin combined with colistin: EC340 (E. coli [6]; Colistin 0): >128 µg/mL; MIC of endolysin combined with colistin: EC340 (E. coli [6]; Colistin 0.0625): 32 µg/mL; MIC of endolysin combined with colistin: EC340 (E. coli [6]; Colistin 0.125): 16 µg/mL; MIC of endolysin combined with colistin: EC340 (E. coli [6]; Colistin 0.25): <2 µg/mL; antibacterial activity (number of bacterium) (E. coli [7]; E. coli ATCC8739, ATCC25922, CCARM1A746, CCARM1B684, 2 hours, Tris-HCl pH 7.5): excellent antibacterial activity; effect of adding NaCl on antibacterial activity (E. coli [7]; E. coli ATCC 8739, Tris or Hepes buffer with 150 mM NaCl): almost inactivated; killing activity (E. coli [7]; Escherichia coli (ATCC 8739), 37° C., 2 hours, 20 mM Tris-Cl pH 7.5): had the killing activity |
